# Data as given in patent publication US20130210765A1, “HYALURONIC ACID CONTAINING PHARMACEUTICAL OR VETERINARY COMPOSITIONS” (priority 2004, published 2013).
# Test system: lameness in horses
# Experiment: double-blind placebo controlled crossover clinical trial on lameness in horses
# Type: in vivo
# Protocol: A crossover double blind and randomised study was designed to evaluate the efficacy of GLM lipid extract and HA alone and in combination in the treatment of lameness in horses.
# Qualifying horses were initially examined and randomly assigned to receive four capsules of the placebo, or containing 50 mg GLM, or 50 mg Hyaluronate, or a mixture of 50 mg GLM and 50 mg Hyaluronate daily. Randomisation was computer generated in balanced blocks of the four treatment regimes and was crossover in design. No other medications were administered.
# Evaluations of arthritic/musculoskeletal signs were carried out by a veterinarian and research assistant at wk 0 and every two weeks thereafter until the end of the trial. All parameters were scored on a scale of 1 to 10 according to severity and symptom improvement where 1 was severe disease symptomology and 10 indicated a disease free condition score and the results are shown in Table 1 and FIG. 4.
# Each horse was scored for mobility (average of individual scores for lameness in walking, trotting, turning and any other musculoskeletal abnormality). Individual joints (neck, back, carpus, elbow and shoulder or tarsus, stifle and hip) of each limb were individually scored for degree of pain, swelling, crepitus and reduction in range of movement. Horses were also filmed for gait analysis and scored. Summation of the mobility score and all individual joint scores for each horse comprised their total arthritic/musculoskeletal score.
substance,measurement,setting,value
Hyaluronic acid [Hyaluronate],"mean clinical lameness score, Mid Phase 14 Days","four capsules daily, 14 days, scale 1 (severe) to 10 (disease free), Mean ± SEM",2.6 ± 0.47^be
same,"mean clinical lameness score, End Phase 28 Days","four capsules daily, 28 days, scale 1 (severe) to 10 (disease free), Mean ± SEM",2.8 ± 0.48^ef
same,effect on degree of lameness / locomotory score (in words),within 2 weeks / 14 days of treatment,little influence on it own
